Experimental data: patent publication EP0665239A1, “Peptide derivatives of bactenecin endowed with antibacterial activity” (CONSIGLIO NAZIONALE DELLE RICERCHE, priority 1994, dated 1995)
Read-outs that look alike come from different tables or passages of the source. No end group written: not given here.

Experiments:
Assay type in all cases: cell-based
[1] = system: Salmonella typhimurium ATCC 14028
Description: (§1) The antibacterial activity of the peptides of this invention was evaluated by determining the minimal inhibitory concentration (MIC) of bacterial growth.
(§2) Each peptide was incubated in microtitration plates, at concentrations that decreased form 320 to 0.1 micrograms/ml, in which the wells contained a final volume of 0.1 ml of Mueller-Hinton broth with 3-5x10⁴ bacteria at the semi-logarithmic growth phase.
(§3) In each experiment, the MIC of Bac5 and Bac7 were also measured, for the purpose of comparison.
(§4) In these assays, the following bacterial strains were used: Escherichia coli ATCC 25922, Salmonella typhimurium ATCC 14028, Klebsiella pneumoniae ATCC 13883 and Enterobacter cloacae ATCC 13047.

[2] = system: Enterobacter cloacae ATCC 13047
Description: as §1, §2, §3, §4

[3] = system: Klebsiella pneumoniae ATCC 13883
Description: as §1, §2, §3, §4

[4] = system: Escherichia coli ATCC 25922
Description: as §1, §2, §3, §4

[5] = Salmonella typhimurium ATCC 14028, Mueller-Hinton broth, 3-5x10⁴ bacteria, 16 hours at 37° C
[6] = Klebsiella pneumoniae ATCC 13883, Mueller-Hinton broth, 3-5x10⁴ bacteria, 16 hours at 37° C
[7] = Escherichia coli ATCC 25922, Mueller-Hinton broth, 3-5x10⁴ bacteria, 16 hours at 37° C
[8] = Enterobacter cloacae ATCC 13047, Mueller-Hinton broth, 3-5x10⁴ bacteria, 16 hours at 37° C

**Q.** How did the MIC ([1]; ATCC 14028) turn out when RFRPPIRRPPIRPPFYPPFRPPIRP [Peptide C] was run?
**A.** Its MIC is 0.8 µM.

**Q.** And the MIC [1, 5]?
**A.** The MIC was 2.5 µg/mL.

**Q.** And the MIC ([2]; ATCC 13047)?
**A.** The MIC was 0.8 to 1.6 µM.

**Q.** And the MIC ([2]; ATCC 13047, 16 h)?
**A.** The MIC was 2.5 to 5 µg/mL.

**Q.** And the MIC ([3]; ATCC 13883)?
**A.** The MIC was 0.8 µM.

**Q.** What about the MIC [3, 6] of the same sequence?
**A.** The MIC was 2.5 µg/mL.

**Q.** And the MIC ([4]; ATCC 25922)?
**A.** Its MIC is 0.8 to 1.6 µM.

**Q.** What about the MIC ([4]; ATCC 25922, 16 h) of the same sequence?
**A.** Its MIC is 2.5 to 5 µg/mL.

**Q.** With “RRIRPRPPRLPRPRPRPL [Peptide D, Arg-Arg-Ile-Arg-Pro-Arg-Pro-Pro-Arg-Leu-Pro-Arg-Pro-Arg-Pro-Arg-Pro-Leu]” as the sequence, how does the MIC ([1]; ATCC 14028) read?
**A.** Its MIC is 0.5 µM.

**Q.** What about the MIC [1, 5] of the same sequence?
**A.** Its MIC is 1.2 µg/mL.

**Q.** What about the MIC ([2]; ATCC 13047) of the same sequence?
**A.** Its MIC is 0.5 to 1.0 µM.

**Q.** What about the MIC ([2]; ATCC 13047, 16 h) of the same sequence?
**A.** Its MIC is 1.2 to 2.5 µg/mL.

**Q.** What about the MIC ([3]; ATCC 13883) of the same sequence?
**A.** Its MIC is 0.2 to 0.5 µM.

**Q.** And the MIC ([3]; ATCC 13883, 16 h)?
**A.** Its MIC is 0.6 to 1.2 µg/mL.

**Q.** What about the MIC ([4]; ATCC 25922) of the same sequence?
**A.** The MIC was 1.0 µM.

**Q.** What about the MIC [4, 7] of the same sequence?
**A.** The MIC was 2.5 µg/mL.

**Q.** How did the MIC ([1]; Salmonella typhimurium ATCC 14028, MICs of Table 1 expressed in molar terms) turn out when RRIRPRPPRLPRPRPRPLPFPRP [Peptide B] was run?
**A.** The MIC was 0.2 to 0.4 µM.

**Q.** What about the MIC [1, 5] of the same sequence?
**A.** Its MIC is 0.6 to 1.2 µg/mL.

**Q.** And the MIC ([2]; Enterobacter cloacae ATCC 13047, MICs of Table 1 expressed in molar terms)?
**A.** Its MIC is 0.2 to 0.4 µM.

**Q.** And the MIC [2, 8]?
**A.** Its MIC is 0.6 to 1.2 µg/mL.

**Q.** And the MIC ([3]; Klebsiella pneumoniae ATCC 13883, MICs of Table 1 expressed in molar terms)?
**A.** Its MIC is 0.2 to 0.4 µM.

**Q.** What about the MIC [3, 6] of the same sequence?
**A.** Its MIC is 0.6 to 1.2 µg/mL.

**Q.** What about the MIC ([4]; Escherichia coli ATCC 25922, MICs of Table 1 expressed in molar terms) of the same sequence?
**A.** Its MIC is 0.4 to 0.8 µM.

**Q.** What about the MIC [4, 7] of the same sequence?
**A.** Its MIC is 1.2 to 2.5 µg/mL.

**Q.** Which results are given for “RRIRPRPPRLPRPRPRPLPFPRPGPRPIPRPLPFP [Peptide A]”?
**A.** MIC ([1]; ATCC 14028): 0.15 to 0.3 µM; MIC ([1]; ATCC 14028, 16 h): 0.6 to 1.2 µg/mL; MIC ([2]; ATCC 13047): 0.15 µM; MIC [2, 8]: 0.6 µg/mL; MIC ([3]; ATCC 13883): 0.15 to 0.3 µM; MIC ([3]; ATCC 13883, 16 h): 0.6 to 1.2 µg/mL; MIC ([4]; ATCC 25922): 0.3 µM; MIC [4, 7]: 1.2 µg/mL
